Consider eleven compounds from PubChem BioAssay AID210 (DTP/NCI, 2004).

Toxic doses and inconclusive results are not listed. *1 amine or outer side, *2 acyl side, *3 side chain or, on linkers, in order; H or OH if unused. Where a SMILES comes first, the peptide text is derived from it. Bridges are numbered along the chain shown (N, C = ends). Roman numbers before positions name the chains, in order. [ ]: non-standard residue; d: D form. Actinocin(9to1) = Cc1c2oc3c(C)ccc(C(=O)[*:1])c3nc-2c(C(=O)[*:2])c(N)c1=O; NMeV = CN[CH](C(=O)O)C(C)C; Aze = O=C(O)[CH]1CCN1; Sar = CNCC(=O)O

This test concerns CD2F1 mice, ip Colon 26 adenocarcinoma, median survival T/C. Put plainly: NCI In Vivo Anticancer Drug Screen. Data for tumor model Colon 26 Adenocarcinoma (intraperitoneal) in CD2F1 (CDF1) mice. To be noted: endpoint: median survival time, higher = longer survival. Here is the method:
The antitumor activity of compounds was measured in mice bearing transplantable tumors. Survival or tumor size were measured and the results are expressed as the measurement made in the treated group (T) divided by the measurement made in the vehicle treated control group (C). The tumor model used in this assay is Colon 26 Adenocarcinoma (intraperitoneal) in CD2F1 (CDF1) mice

Setting [1] is: dose: 12.5 mg/kg/injection, schedule: Q04DX003 (ip), vehicle: Klucel (hydroxypropylcellulose) (HPC).
[2] abbreviates: dose: 25.0 mg/kg/injection, schedule: Q04DX003 (ip), vehicle: Klucel (hydroxypropylcellulose) (HPC).
[3] abbreviates: dose: 50.0 mg/kg/injection, schedule: Q04DX003 (ip), vehicle: Klucel (hydroxypropylcellulose) (HPC).
Setting [4] is: dose: 200.0 mg/kg/injection, schedule: Q04DX003 (ip), vehicle: Klucel (hydroxypropylcellulose) (HPC).
[5] abbreviates: dose: 100.0 mg/kg/injection, schedule: Q04DX003 (ip), vehicle: Klucel (hydroxypropylcellulose) (HPC).

`CC(=O)OCc1cc(=O)n(C)c2c3c4c(cc12)c(C)cc(=O)n4CO3`: the T/C reads like this: under setting [1], 106 % of control; under setting [2], 106 % of control; under setting [3], 115 % of control; under setting [4], 115 % of control.
With `Cc1c2oc3c(C)ccc(C(=O)NC4C(=O)NC(C(C)C)C(=O)N5CCC5C(=O)N(C)CC(=O)N(C)C(C(C)C)C(=O)OC4C)c3nc-2c(C(=O)NC2C(=O)NC(C(C)C)C(=O)N3CCC3C(=O)N(C)CC(=O)N(C)C(C(C)C)C(=O)OC2C)c(N)c1=O` (stereo not given) (I: TV[Aze][Sar][NMeV] / II: TV[Aze][Sar][NMeV]; ester I:1-I:C, II:1-II:C; linker I:N-II:N via Actinocin(9to1); configuration not given here), for the setting “dose: 270.0 micrograms/kg/injection, schedule: Q04DX003 (ip), vehicle: saline + alcohol”, the T/C was 114 % of control.
Regarding `C[C@]12C=CC(=O)C=C1CC[C@@H]1[C@@H]2C(=O)C[C@@]2(C)[C@H]1CC[C@]2(O)C(=O)CO`, the T/C reads like this: under setting [2], 105 % of control; under setting [3], 100 % of control; under setting [5], 100 % of control; under setting [4], 96 % of control; (dose: 400.0 mg/kg/injection, schedule: Q04DX003 (ip), vehicle: Klucel (hydroxypropylcellulose) (HPC)) 98 % of control.
Turning to `Cc1ncc(CNC(=O)N(CCCl)N=O)c(N)n1`, the T/C was 360 % of control (dose: 25.0 mg/kg/injection, schedule: Q04DX003 (oral), vehicle: saline); 340 % of control (dose: 40.0 mg/kg/injection, schedule: Q04DX003 (oral), vehicle: saline); 95 % of control (dose: 64.0 mg/kg/injection, schedule: Q04DX003 (oral), vehicle: saline).
In the case of `CC1(CO)C(O)CCC2(C)C1C(O)CC1CC3CC12CCC3(O)CO` (stereo not given), the T/C was 120 % of control (dose: 12.5 mg/kg/injection, schedule: Q04DX002 (ip), vehicle: distilled water + Tween-80); 98 % of control (dose: 50.0 mg/kg/injection, schedule: Q04DX002 (ip), vehicle: distilled water + Tween-80); 110 % of control (dose: 100.0 mg/kg/injection, schedule: Q04DX002 (ip), vehicle: distilled water + Tween-80); 103 % of control (dose: 200.0 mg/kg/injection, schedule: Q04DX002 (ip), vehicle: distilled water + Tween-80).
With `CN(C)/N=N/c1nc[nH]c1C(N)=O`, the T/C runs as follows: (dose: 25.0 mg/kg/injection, schedule: Q04DX003 (ip), vehicle: carboxymethylcellulose (CMC)) 112 % of control; (dose: 50.0 mg/kg/injection, schedule: Q04DX003 (ip), vehicle: carboxymethylcellulose (CMC)) 120 % of control; (dose: 100.0 mg/kg/injection, schedule: Q04DX003 (ip), vehicle: carboxymethylcellulose (CMC)) 122 % of control; (dose: 240.0 mg/kg/injection, schedule: Q01DX001 (ip), vehicle: Klucel (hydroxypropylcellulose) (HPC)) 95 % of control; (dose: 400.0 mg/kg/injection, schedule: Q01DX001 (ip), vehicle: Klucel (hydroxypropylcellulose) (HPC)) 92 % of control; (dose: 400.0 mg/kg/injection, schedule: Q04DX003 (ip), vehicle: carboxymethylcellulose (CMC)) 116 % of control. Further, the T/C (dose: 600.0 mg/kg/injection, schedule: Q01DX001 (ip), vehicle: Klucel (hydroxypropylcellulose) (HPC)) was 61 % of control.
Take `COc1cccc2c1C(=O)c1c(O)c3c(c(O)c1C2=O)C[C@@](O)(C(C)=O)C[C@@H]3OC1CC(N)C(O)C(C)O1` (stereo not given in full): the T/C was 114 % of control (dose: 1.8 mg/kg/injection, schedule: Q04DX003 (ip), vehicle: water); 158 % of control (dose: 2.0 mg/kg/injection, schedule: Q04DX003 (ip), vehicle: saline); 113 % of control (dose: 2.0 mg/kg/injection, schedule: Q07DX002 (iv), vehicle: saline); 119 % of control (dose: 2.16 mg/kg/injection, schedule: Q04DX003 (ip), vehicle: water); 106 % of control (dose: 3.4 mg/kg/injection, schedule: Q07DX002 (iv), vehicle: saline); 103 % of control (dose: 3.6 mg/kg/injection, schedule: Q04DX003 (ip), vehicle: water). The T/C runs as follows: (dose: 4.0 mg/kg/injection, schedule: Q04DX003 (ip), vehicle: saline) 115 % of control; (dose: 5.7 mg/kg/injection, schedule: Q07DX002 (iv), vehicle: saline) 104 % of control; (dose: 9.5 mg/kg/injection, schedule: Q07DX002 (iv), vehicle: saline) 115 % of control.
As for `CO[C@@]12[C@H](COC(N)=O)C3=C(C(=O)C(C)=C(N)C3=O)N1C[C@@H]1N[C@@H]12`, the T/C was 122 % of control (dose: 1.0 mg/kg/injection, schedule: Q01DX004 (ip), vehicle: saline); 120 % of control (dose: 1.0 mg/kg/injection, schedule: Q03DX002 (ip), vehicle: saline); 96 % of control (dose: 2.0 mg/kg/injection, schedule: Q01DX005 (ip), vehicle: saline); 113 % of control (dose: 2.0 mg/kg/injection, schedule: Q03DX002 (ip), vehicle: saline); 195 % of control (dose: 2.0 mg/kg/injection, schedule: Q07DX003 (ip), vehicle: Klucel (hydroxypropylcellulose) (HPC)); 152 % of control (dose: 2.0 mg/kg/injection, schedule: Q07DX003 (ip), vehicle: saline). Also, the T/C was 183 % of control (dose: 2.9 mg/kg/injection, schedule: Q07DX003 (ip), vehicle: Klucel (hydroxypropylcellulose) (HPC)); 169 % of control (dose: 2.9 mg/kg/injection, schedule: Q07DX003 (ip), vehicle: saline); 114 % of control (dose: 3.0 mg/kg/injection, schedule: Q01DX004 (ip), vehicle: saline); 110 % of control (dose: 3.0 mg/kg/injection, schedule: Q01DX005 (ip), vehicle: saline); 117 % of control (dose: 3.0 mg/kg/injection, schedule: Q03DX002 (ip), vehicle: saline); 223 % of control (dose: 4.2 mg/kg/injection, schedule: Q07DX003 (ip), vehicle: Klucel (hydroxypropylcellulose) (HPC)). Also, the T/C is, setting by setting: (dose: 4.2 mg/kg/injection, schedule: Q07DX003 (ip), vehicle: saline) 190 % of control; (dose: 4.5 mg/kg/injection, schedule: Q01DX005 (ip), vehicle: saline) 114 % of control; (dose: 4.5 mg/kg/injection, schedule: Q03DX002 (ip), vehicle: saline) 110 % of control; (dose: 6.0 mg/kg/injection, schedule: Q01DX005 (ip), vehicle: saline) 121 % of control; (dose: 6.0 mg/kg/injection, schedule: Q07DX003 (ip), vehicle: Klucel (hydroxypropylcellulose) (HPC)) 87 % of control; (dose: 6.0 mg/kg/injection, schedule: Q07DX003 (ip), vehicle: saline) 231 % of control.
Turning to `S=P(N1CC1)(N1CC1)N1CC1`, the T/C is, setting by setting: (dose: 1.5 mg/kg/injection, schedule: Q04DX003 (ip), vehicle: saline) 106 % of control; (dose: 3.0 mg/kg/injection, schedule: Q04DX003 (ip), vehicle: saline) 115 % of control; (dose: 12.0 mg/kg/injection, schedule: Q04DX003 (ip), vehicle: saline) 153 % of control.
In the case of `CN(Cc1cnc2nc(N)nc(N)c2n1)c1c(Cl)cc(C(=O)NC(CCC(=O)O)C(=O)O)cc1Cl` (stereo not given), the T/C runs as follows: under setting [1], 105 % of control; under setting [2], 102 % of control; under setting [3], 104 % of control; under setting [5], 104 % of control; under setting [4], 118 % of control.
With `C[C@]12CC[C@@H]3c4ccc(O)cc4CC[C@H]3[C@@H]1CC[C@@H]2O`, the T/C is, setting by setting: (dose: 6.25 mg/kg/injection, schedule: Q04DX002 (ip), vehicle: Klucel (hydroxypropylcellulose) (HPC)) 103 % of control; (dose: 12.5 mg/kg/injection, schedule: Q04DX002 (ip), vehicle: Klucel (hydroxypropylcellulose) (HPC)) 95 % of control; (dose: 25.0 mg/kg/injection, schedule: Q04DX002 (ip), vehicle: Klucel (hydroxypropylcellulose) (HPC)) 94 % of control; (dose: 50.0 mg/kg/injection, schedule: Q04DX002 (ip), vehicle: Klucel (hydroxypropylcellulose) (HPC)) 103 % of control; (dose: 100.0 mg/kg/injection, schedule: Q04DX002 (ip), vehicle: Klucel (hydroxypropylcellulose) (HPC)) 100 % of control; (dose: 200.0 mg/kg/injection, schedule: Q04DX002 (ip), vehicle: Klucel (hydroxypropylcellulose) (HPC)) 98 % of control.
